Source: patent US20180208605A1, “Substituted Aza Compounds as IRAK-4 Inhibitors” (AURIGENE DISCOVERY TECHNOLOGIES LIMITED, priority 2015, published 2018)
Structures can show the parent of a compound that is named as a salt.

Molecular target: T1, recombinant IRAK-4 kinase (Homo sapiens, UniProt Q9NWZ3)
T1 construct: purchased Millipore, USA
T1 sequence (Q9NWZ3 1-460): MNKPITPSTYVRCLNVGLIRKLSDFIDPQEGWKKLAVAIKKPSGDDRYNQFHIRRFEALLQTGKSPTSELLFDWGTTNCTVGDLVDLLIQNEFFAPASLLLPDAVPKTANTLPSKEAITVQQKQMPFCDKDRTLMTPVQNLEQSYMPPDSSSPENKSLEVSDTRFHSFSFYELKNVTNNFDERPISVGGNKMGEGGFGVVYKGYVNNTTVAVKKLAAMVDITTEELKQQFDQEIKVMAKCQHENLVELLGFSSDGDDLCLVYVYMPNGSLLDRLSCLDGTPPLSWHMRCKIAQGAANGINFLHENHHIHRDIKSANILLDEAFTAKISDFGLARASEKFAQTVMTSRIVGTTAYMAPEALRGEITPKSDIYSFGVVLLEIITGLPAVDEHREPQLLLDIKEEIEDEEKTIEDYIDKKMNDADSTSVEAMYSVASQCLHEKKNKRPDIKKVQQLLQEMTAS
Assay: IRAK-4 Biochemical Assay (TR-FRET, percent inhibition)
Conditions: TR-FRET, 20 μM ATP, 100 nM Biotin Histone H3; for inhibition at 0.1 µM: read-out: % inhibition of IRAK-4 @0.1 μM, compound at 0.1 μM; for inhibition at 1 µM: read-out: % inhibition of IRAK-4 @ 1 μM, compound at 1 μM
Method: Compounds were tested for their potential to inhibit IRAK-4 enzyme in a TR-FRET assay using recombinant IRAK-4 kinase from Millipore, USA. The assay buffer was 50 mM Tris-HCl pH 7.5, 20 mM MgCl2, 1 mM EGTA, 2 mM DTT, 3 mM MnCl2 and 0.01% Tween 20.5 ng of IRAK-4 kinase was used for the assay. After pre-incubation of enzyme with test compound for 30 minutes at room temperature, a substrate mixture containing 100 nM Biotin Histone H3 (Millipore, USA) and 20 μM ATP (Sigma, USA) was added and the reaction was incubated for 30 min. Post incubation, the reaction was stopped by the addition of stop mix containing 40 mM EDTA, 1 nM of Europium-Anti-Phospho-Histone H3 (Ser10) antibody (Perkin Elmer, USA) and 20 nM SureLight Allophycocyanin-Streptavidin (Perkin Elmer, USA). The fluorescence emission at 615 nm and 665 nm were measured at an excitation of 340 nm and the percent inhibition was estimated from the ratio of the fluorescence intensities [(F665/F615)×10000].

Row | SMILES | inhibition at 0.1 µM [%] | inhibition at 1 µM [%] | % inhibition of IRAK-4 @0.1 μM (compound at 0.1 μM) [%] | % inhibition of IRAK-4 @ 1 μM (compound at 1 μM) [%]
1 | O=C(Nc1cc2sc(N3CCOCC3)nc2nc1N1CCCCC1)c1cccc(N2CCC(CO)C2)n1 (stereo not drawn) [Example 77, 6-(3-(hydroxymethyl)pyrrolidin-1-yl)-N-(2-morpholino-5-(piperidin-1-yl)thiazolo[4,5-b]pyridin-6-yl)picolinamide] | 98 | 99 | – | –
2 | O=C(Nc1cc2sc(N3CCOCC3)nc2nc1N1CCCCC1)c1cccc(N2CCO[C@@H](CO)C2)n1 [Example 33, (R)-6-(2-(hydroxymethyl)morpholino)-N-(2-morpholino-5-(piperidin-1-yl)thiazolo[4,5-b]pyridin-6-yl)picolinamide] | 95 | 97 | – | –
3 | COC(=O)C1CN(c2cccc(C(=O)Nc3cc4sc(N5CCOCC5)nc4nc3N3CCCCC3)n2)C(=O)N1 (stereo not drawn) [Example 48, methyl 1-(6-((2-morpholino-5-(piperidin-1-yl)thiazolo[4,5-b]pyridin-6-yl)carbamoyl)pyridin-2-yl)-2-oxoimidazolidine-4-carboxylate] | 96 | 100 | – | –
4 | O=C(Nc1cc2sc(N3CCOCC3)nc2nc1N1CCCCC1)c1cccc(N2CCCC(CO)C2)n1 (stereo not drawn) [Example 78, 6-(3-(hydroxymethyl)piperidin-1-yl)-N-(2-morpholino-5-(piperidin-1-yl)thiazolo[4,5-b]pyridin-6-yl)picolinamide] | 99 | 96 | – | –
5 | O=C(Nc1cc2sc(N3CCOCC3)nc2nc1N1CCC[C@@H](O)C1)c1cccc(N2CCCCC2)n1 [Example 40, (R)-N-(5-(3-hydroxypiperidin-1-yl)-2-morpholinothiazolo[4,5-b]pyridin-6-yl)-6-(piperidin-1-yl)picolinamide] | 96 | 99 | – | –
6 | O=C(Nc1cc2sc(N3CCOCC3)nc2nc1N1CCCCC1)c1cccc(N2CC[C@@H](O)C2)n1 [Example 34, (R)-6-(3-hydroxypyrrolidin-1-yl)-N-(2-morpholino-5-(piperidin-1-yl)thiazolo[4,5-b]pyridin-6-yl)picolinamide] | 97 | 99 | – | –
7 | O=C(Nc1cc2sc(N3CCOCC3)nc2nc1N1CCCCC1)c1cccc(N2CCC(CO)CC2)n1 [Example 32, 6-(4-(hydroxymethyl)piperidin-1-yl)-N-(2-morpholino-5-(piperidin-1-yl)thiazolo[4,5-b]pyridin-6-yl)picolinamide] | 93 | 95 | – | –
8 | O=C(Nc1cc2oc(N3CCOCC3)nc2nc1C1CC1)c1cnn2cccnc12 [Example 107, N-(5-cyclopropyl-2-morpholinooxazolo[4,5-b]pyridin-6-yl)pyrazolo[1,5-a]pyrimidine-3-carboxamide hydrochloride] | 57 | 92 | – | –
9 | NCC(=O)OC1CCN(c2cccc(C(=O)Nc3cc4sc(N5CCOCC5)nc4nc3N3CCOCC3)n2)C1 (stereo not drawn) [Example 79, 1-(6-((2,5-dimorpholinothiazolo[4,5-b]pyridin-6-yl)carbamoyl)pyridin-2-yl)pyrrolidin-3-yl glycinate] | 70 | 96 | – | –
10 | O=C(Nc1cc2sc(N3CCOCC3)nc2nc1N1CCCCC1)c1cccc(N2CCC[C@@H](O)C2)n1 [Example 30, (R)-6-(3-hydroxypiperidin-1-yl)-N-(2-morpholino-5-(piperidin-1-yl)thiazolo[4,5-b]pyridin-6-yl)picolinamide] | 98 | 99 | – | –
11 | O=C(Nc1cc2sc(N3CCOCC3)nc2nc1N1CCCCC1)c1cccc(N2CCC(O)CC2)n1 [Example 56, 6-(4-hydroxypiperidin-1-yl)-N-(2-morpholino-5-(piperidin-1-yl)thiazolo[4,5-b]pyridin-6-yl)picolinamide] | 95 | 96 | – | –
12 | Cc1cc(-c2ccc(C(=O)Nc3cc4sc(N5CCOCC5)nc4nc3N3CCC(O)(CO)CC3)o2)ccn1 [Example 2, N-(5-(4-hydroxy-4-(hydroxymethyl)piperidin-1-yl)-2-morpholinothiazolo[4,5-b]pyridin-6-yl)-5-(2-methylpyridin-4-yl)furan-2-carboxamide hydrochloride] | 98 | 99 | – | –
13 | O=C(Nc1cc2sc(N3CCOCC3)nc2nc1N1CCCCC1)c1cccc(-n2cnc(CO)c2)n1 [Example 67, 6-(4-(hydroxymethyl)-1H-imidazol-1-yl)-N-(2-morpholino-5-(piperidin-1-yl)thiazolo[4,5-b]pyridin-6-yl)picolinamide] | 100 | 101 | – | –
14 | NCC(=O)OC1CCN(c2cccc(C(=O)Nc3cc4sc(N5CCOCC5)nc4nc3N3CCCCC3)n2)CC1 [Example 66, 1-(6-((2-morpholino-5-(piperidin-1-yl)thiazolo[4,5-b]pyridin-6-yl)carbamoyl)pyridin-2-yl)piperidin-4-yl glycinate] | 90 | 95 | – | –
15 | O=C(Nc1cc2sc(N3CCOCC3)nc2nc1N1CCCCC1)c1cccc(N2CCC(C(=O)O)CC2)n1 [Example 71, sodium 1-(6-((2-morpholino-5-(piperidin-1-yl)thiazolo[4,5-b]pyridin-6-yl)carbamoyl)pyridin-2-yl)piperidine-4-carboxylate] | 94 | 96 | – | –
16 | Cc1ccc(-c2nc3nc(N4CCOCC4)sc3cc2NC(=O)c2cnn3cccnc23)nc1 [Example 20, N-(5-(5-methylpyridin-2-yl)-2-morpholinothiazolo[4,5-b]pyridin-6-yl)pyrazolo[1,5-a]pyrimidine-3-carboxamide] | 97 | 98 | – | –
17 | Nc1cccc(-c2nc(C(=O)Nc3cc4oc(N5CCOCC5)nc4nc3N3CC[C@@H](O)C3)co2)n1 [Example 87, (R)-2-(6-aminopyridin-2-yl)-N-(5-(3-hydroxypyrrolidin-1-yl)-2-morpholinooxazolo[4,5-b]pyridin-6-yl)oxazole-4-carboxamide hydrochloride] | 21 | 57 | – | –
18 | O=C(Nc1cc2sc(N3CCOCC3)nc2nc1C1CC1)c1cnn2ccc(N3CCC[C@H](O)C3)nc12 [Example 100, (S)-N-(5-cyclopropyl-2-morpholinothiazolo[4,5-b]pyridin-6-yl)-5-(3-hydroxypiperidin-1-yl)pyrazolo[1,5-a]pyrimidine-3-carboxamide] | 96 | 99 | – | –
19 | O=C(Nc1cc2sc(N3CCOCC3)nc2nc1N1CCCCC1)c1cncc(N2CC[C@@H](O)C2)n1 [Example 62, (R)-6-(3-hydroxypyrrolidin-1-yl)-N-(2-morpholino-5-(piperidin-1-yl)thiazolo[4,5-b]pyridin-6-yl)pyrazine-2-carboxamide] | 93 | 95 | – | –
20 | NCCNc1ccn2ncc(C(=O)Nc3cc4sc(N5CCOCC5)nc4nc3C3CC3)c2n1 [Example 22, 5-((2-aminoethyl)amino)-N-(5-cyclopropyl-2-morpholinothiazolo[4,5-b]pyridin-6-yl)pyrazolo[1,5-a]pyrimidine-3-carboxamide] | 97 | 98 | – | –
21 | Cc1cc(-c2c[nH]c(C(=O)Nc3cc4sc(N5CCOCC5)nc4nc3N3CC[C@@H](O)C3)c2)ccn1 [Example 73, (R)-N-(5-(3-hydroxypyrrolidin-1-yl)-2-morpholinothiazolo[4,5-b]pyridin-6-yl)-4-(2-methylpyridin-4-yl)-1H-pyrrole-2-carboxamide] | 69 | 97 | – | –
22 | O=C(Nc1cc2sc(N3CCOCC3)nc2nc1N1CCCCC1)c1cccc(N2CCC(C(=O)O)CC2)n1 [Example 80, 1-(6-((2-morpholino-5-(piperidin-1-yl)thiazolo[4,5-b]pyridin-6-yl)carbamoyl)pyridin-2-yl)piperidine-4-carboxylic acid] | – | – | 96 | 99
23 | Nc1cccc(-c2nc(C(=O)Nc3cc4sc(N5CCOCC5)nc4nc3N3CCCCC3)co2)n1 [Example 11, 2-(6-aminopyridin-2-yl)-N-(2-morpholino-5-(piperidin-1-yl)thiazolo[4,5-b]pyridin-6-yl)oxazole-4-carboxamide hydrochloride] | 99 | 98 | – | –
24 | NCc1cn(-c2cccc(C(=O)Nc3cc4sc(N5CCOCC5)nc4nc3N3CCCCC3)n2)cn1 [Example 70, 6-(4-(aminomethyl)-1H-imidazol-1-yl)-N-(2-morpholino-5-(piperidin-1-yl)thiazolo[4,5-b]pyridin-6-yl)picolinamide 2,2,2-trifluoroacetate] | 98 | 99 | – | –
